Assay results reported in PMC5378332, “Molecular actions of two synthetic brassinosteroids, iso-carbaBL and 6-deoxoBL, which cause altered physiological activities between Arabidopsis and rice” (PLoS ONE, 2017).

How the values were obtained:
rice BRI1 LRR17-ID-LRR18 = molecular target: T1, rice BRI1 LRR17-ID-LRR18 (Oryza sativa, UniProt Q942F3); experiment: competition with BPCS photoaffinity crosslinking, anti-biotin immunoblot; type: binding; conditions: dose-dependent competition; GST-normalised
T1 construct: extracellular LRR17-island domain-LRR18 fragment, amino acids 484-600; N-terminal GST fusion from pGEX6P-1, GST kept; glutathione-Sepharose purified
T1 sequence (Q942F3 484-600): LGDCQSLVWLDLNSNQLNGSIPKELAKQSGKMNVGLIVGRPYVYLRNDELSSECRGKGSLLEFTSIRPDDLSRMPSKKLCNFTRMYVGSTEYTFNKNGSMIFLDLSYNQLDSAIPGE

[1] = molecular target: T2, Arabidopsis BRI1 LRR21-ID-LRR22 (Arabidopsis thaliana, UniProt O22476); experiment: as above; type: binding; conditions: dose-dependent competition; GST-normalised
T2 construct: extracellular LRR21-island domain-LRR22 fragment, amino acids 556-673; N-terminal GST fusion from pGEX6P-1, GST kept; glutathione-Sepharose purified
T2 sequence (O22476 556-673): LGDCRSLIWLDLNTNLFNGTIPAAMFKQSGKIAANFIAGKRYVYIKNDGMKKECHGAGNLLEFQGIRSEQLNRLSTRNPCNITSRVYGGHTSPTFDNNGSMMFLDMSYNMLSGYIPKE

SMILES	competition with BPCS photoaffinity crosslinking, anti-biotin immunoblot (rice BRI1 LRR17-ID-LRR18)	competition with BPCS photoaffinity crosslinking, anti-biotin immunoblot [1]
CC(C)[C@H](C)[C@@H](O)[C@H](O)[C@@H](C)[C@H]1CC[C@H]2[C@@H]3COC(=O)[C@H]4C[C@H](O)[C@H](O)C[C@]4(C)[C@H]3CC[C@]12C [BL, (22R,23R,24S)-2α,3α,22,23-tetrahydroxy-24-methyl-B-homo7-oxa-5α-cholestan-6-one]	BL, the positive control, inhibited the binding of BPCS to both Arabidopsis and rice BRI1	
CC(C)[C@H](C)[C@@H](O)[C@H](O)[C@@H](C)[C@H]1CC[C@H]2[C@@H]3CC(=O)C[C@H]4C[C@@H](O)[C@@H](O)C[C@]4(C)[C@H]3CC[C@]12C [iso-carbaBL]	decreased the binding of BPCS not only to Arabidopsis BRI1, but also to rice BRI1	decreased the binding of BPCS not only to Arabidopsis BRI1, but also to rice BRI1
